For one assay, the target named is T1, human TLR7 (Homo sapiens, UniProt Q9NYK1).
T1 construct: host or cells: HEK-Blue cells
T1 sequence (Q9NYK1 27-1049): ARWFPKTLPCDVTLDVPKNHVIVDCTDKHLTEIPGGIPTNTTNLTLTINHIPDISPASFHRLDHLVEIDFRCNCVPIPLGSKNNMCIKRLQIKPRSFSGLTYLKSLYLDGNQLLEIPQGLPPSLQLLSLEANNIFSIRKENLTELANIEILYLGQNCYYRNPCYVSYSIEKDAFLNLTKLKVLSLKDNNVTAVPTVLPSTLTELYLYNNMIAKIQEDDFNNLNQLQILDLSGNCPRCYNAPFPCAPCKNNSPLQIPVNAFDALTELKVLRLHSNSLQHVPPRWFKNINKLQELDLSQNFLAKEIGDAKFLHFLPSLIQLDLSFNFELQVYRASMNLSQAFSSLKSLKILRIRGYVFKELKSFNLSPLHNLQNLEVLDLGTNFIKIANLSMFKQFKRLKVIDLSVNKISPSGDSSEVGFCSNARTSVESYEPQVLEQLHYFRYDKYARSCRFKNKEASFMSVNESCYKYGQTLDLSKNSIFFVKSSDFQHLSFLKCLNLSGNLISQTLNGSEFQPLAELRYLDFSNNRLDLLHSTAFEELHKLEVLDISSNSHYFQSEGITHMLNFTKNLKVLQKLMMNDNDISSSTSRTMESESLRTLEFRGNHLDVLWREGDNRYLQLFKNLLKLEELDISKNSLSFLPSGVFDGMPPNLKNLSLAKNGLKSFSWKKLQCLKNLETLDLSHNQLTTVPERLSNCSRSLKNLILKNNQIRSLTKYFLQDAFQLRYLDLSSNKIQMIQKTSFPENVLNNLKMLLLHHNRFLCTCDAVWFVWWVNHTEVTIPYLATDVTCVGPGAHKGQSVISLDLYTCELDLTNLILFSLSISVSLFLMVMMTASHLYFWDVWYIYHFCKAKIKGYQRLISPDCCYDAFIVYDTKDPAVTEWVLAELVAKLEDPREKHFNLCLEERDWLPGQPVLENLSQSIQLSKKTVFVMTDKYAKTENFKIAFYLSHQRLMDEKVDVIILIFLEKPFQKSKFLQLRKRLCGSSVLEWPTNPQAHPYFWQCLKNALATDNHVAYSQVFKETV
The assay can be described thus: TLR7 inhibition reporter assay (HEK-Blue cells, SEAP reporter). It is filed as cell-based. The following applies: HEK-Blue cells overexpressing human TLR7, stimulated with gardiquimod 7.5 μM, 22 hour incubation. In short, it runs like this: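 Human TLR7/8/9 HEK-Blue reporter lines; dose range 0.05 nM–50 μM; 30 min RT preincubation; stimulus gardiquimod 7.5 μM / R848 15.9 μM / ODN2006 5 nM respectively; 22 h, 37 °C; SEAP detected colorimetrically.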
Background: In a reporter assay the amount or activity of a reporter protein is the signal.

For another assay, the target named is T2, human TLR9 (Homo sapiens, UniProt Q9NR96).
T2 construct: host or cells: HEK-Blue cells
T2 sequence (Q9NR96 26-1032): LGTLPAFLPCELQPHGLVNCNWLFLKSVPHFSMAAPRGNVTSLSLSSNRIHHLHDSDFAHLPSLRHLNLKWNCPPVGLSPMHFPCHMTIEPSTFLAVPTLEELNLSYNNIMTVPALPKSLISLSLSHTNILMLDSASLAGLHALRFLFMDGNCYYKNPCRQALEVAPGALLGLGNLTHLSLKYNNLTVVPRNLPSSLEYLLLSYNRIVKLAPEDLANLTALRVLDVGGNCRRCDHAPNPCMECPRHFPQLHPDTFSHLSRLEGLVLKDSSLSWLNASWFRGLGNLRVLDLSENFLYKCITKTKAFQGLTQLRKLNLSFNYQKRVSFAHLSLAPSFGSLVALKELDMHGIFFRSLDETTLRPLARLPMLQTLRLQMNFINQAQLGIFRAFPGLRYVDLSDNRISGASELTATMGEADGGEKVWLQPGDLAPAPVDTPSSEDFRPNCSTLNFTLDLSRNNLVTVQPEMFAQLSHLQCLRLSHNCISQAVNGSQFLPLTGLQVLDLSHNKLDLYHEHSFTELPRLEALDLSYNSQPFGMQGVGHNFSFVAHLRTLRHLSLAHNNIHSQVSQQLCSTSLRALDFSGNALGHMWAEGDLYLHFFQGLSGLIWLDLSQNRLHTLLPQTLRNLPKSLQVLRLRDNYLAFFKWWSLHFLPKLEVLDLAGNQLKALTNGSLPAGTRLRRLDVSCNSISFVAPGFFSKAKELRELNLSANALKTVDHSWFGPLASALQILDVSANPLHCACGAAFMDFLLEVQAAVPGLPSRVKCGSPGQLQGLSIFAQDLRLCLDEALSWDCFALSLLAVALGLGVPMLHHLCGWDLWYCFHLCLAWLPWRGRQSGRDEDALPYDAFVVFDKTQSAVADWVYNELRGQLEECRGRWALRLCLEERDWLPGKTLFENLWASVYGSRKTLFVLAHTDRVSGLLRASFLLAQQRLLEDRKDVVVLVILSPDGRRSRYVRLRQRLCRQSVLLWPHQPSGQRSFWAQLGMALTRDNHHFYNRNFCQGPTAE
The assay can be described thus: TLR9 inhibition reporter assay (HEK-Blue cells, SEAP reporter). It is filed as cell-based. The settings on record: HEK-Blue cells overexpressing human TLR9, stimulated with ODN2006 5 nM, 22 hour incubation. In short, it runs like this: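 HEK-Blue cells overexpressing human TLR9 (25,000 cells/well), NF-κB/AP-1-driven SEAP reporter. Compounds at 0.05 nM–50 μM final, 22 h at 37 °C, 5% CO2 with agonist. SEAP detected with HEK-Blue Detection medium; % inhibition versus agonist plus DMSO and known-inhibitor wells.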

Bounds are passed on as bounds.

This passage reports IC50 results from patent US12590091B2, “1H-pyrrolo[3,2-C]pyridine and 1H-pyrrolo[2,3-C]pyridine derivatives as TLR9 inhibitors for the treatment of fibrosis” (BRISTOL-MYERS SQUIBB COMPANY, priority 2020, dated 2026).

Broadly, the IC50 is the concentration that inhibits the measured activity by half. A high value points to weaker potency in that assay.

As to `CCOC(=O)N1CCC(N2CCC(c3cc4c(cn3)cc(-c3ccc(OC)c(OC)c3)n4C)CC2)CC1` [Example 7, Ethyl 4-(2-(3,4-dimethoxyphenyl)-1-methyl-1H-pyrrolo[3,2-c]pyridin-6-yl)-[1,4′-bipiperidine]-1′-carboxylate], the IC50 on human TLR7 was more than 50000 nM; at human TLR9, 111 nM.
Regarding `COc1ccc(-c2cc3cnc(C4CCN(Cc5ccc(C)nc5)CC4)cc3n2C)cc1OC` [Example 8, 2-(3,4-Dimethoxyphenyl)-1-methyl-6-(1-((6-methylpyridin-3-yl)methyl)piperidin-4-yl)-1H-pyrrolo[3,2-c]pyridine], the IC50 against human TLR7 was determined as 6800 nM; against human TLR9 it was 58 nM.
On the same counts, the results for `Cc1nc(-c2cc(F)c(N3CCN(C4CCOCC4)CC3)c(F)c2)cc2c1cc(-c1ccc(S(C)(=O)=O)cc1)n2C` [Example 89, 6-(3,5-difluoro-4-(4-(tetrahydro-2H-pyran-4-yl)piperazin-1-yl)phenyl)-1,4-dimethyl-2-(4-(methylsulfonyl)phenyl)-1H-pyrrolo[3,2-c]pyridine] are more than 50000 nM and 226 nM.
On the same counts, the results for `Cc1nc(-c2ccc(C3(O)CCN(CC(C)C)CC3)c(F)c2)cc2c1cc(-c1ccc(S(C)(=O)=O)cc1)n2C` [Example 90, 4-(4-(1,4-dimethyl-2-(4-(methylsulfonyl)phenyl)-1H-pyrrolo[3,2-c]pyridin-6-yl)-2-fluorophenyl)-1-isobutylpiperidin-4-ol] are 7800 nM and 141 nM.
In the same order, the values of `Cc1nc(-c2ccc(C3(O)CC4CCC(C3)N4CC(C)C)c(F)c2)cc2c1cc(-c1ccc(S(C)(=O)=O)cc1)n2C` [Example 91, (1R,3r,5S)-3-(4-(1,4-dimethyl-2-(4-(methylsulfonyl)phenyl)-1H-pyrrolo[3,2-c]pyridin-6-yl)-2-fluorophenyl)-8-isobutyl-8-azabicyclo[3.2.1]octan-3-ol] are 30800 nM and 735 nM.
For `COCCN1CCC(O)(c2ccc(-c3cc4c(cc(-c5ccc(S(C)(=O)=O)cc5)n4C)c(C)n3)cc2F)CC1` [Example 92, 4-(4-(1,4-dimethyl-2-(4-(methylsulfonyl)phenyl)-1H-pyrrolo[3,2-c]pyridin-6-yl)-2-fluorophenyl)-1-(2-methoxyethyl)piperidin-4-ol], the IC50 on human TLR7 worked out at 7000 nM; at human TLR9 it was 109 nM.
In the same order, the values of `Cc1nc(-c2ccc(C3(O)CCN(C4CC4)CC3)c(F)c2)cc2c1cc(-c1ccc(S(C)(=O)=O)cc1)n2C` [Example 93, 1-cyclopropyl-4-(4-(1,4-dimethyl-2-(4-(methylsulfonyl)phenyl)-1H-pyrrolo[3,2-c]pyridin-6-yl)-2-fluorophenyl)piperidin-4-ol] are 9900 nM and 1430 nM.
Turning to `Cc1nc(-c2cc(F)c(C3(O)CCN(CC(C)C)CC3)cc2F)cc2c1cc(-c1ccc(S(C)(=O)=O)cc1)n2C` [Example 94, 4-(4-(1,4-dimethyl-2-(4-(methylsulfonyl)phenyl)-1H-pyrrolo[3,2-c]pyridin-6-yl)-2,5-difluorophenyl)-1-isobutylpiperidin-4-ol], the 50% inhibitory concentration (IC50) at human TLR7 turned out to be 3600 nM; at human TLR9, 143 nM.
As to `COCCN1CCC(O)(c2cc(F)c(-c3cc4c(cc(-c5ccc(S(C)(=O)=O)cc5)n4C)c(C)n3)cc2F)CC1` [Example 95, 4-(4-(1,4-dimethyl-2-(4-(methylsulfonyl)phenyl)-1H-pyrrolo[3,2-c]pyridin-6-yl)-2,5-difluorophenyl)-1-(2-methoxyethyl)piperidin-4-ol], the half-inhibitory concentration (IC50) against human TLR7 was determined as 3200 nM; against human TLR9, 537 nM.
In the same order, the values of `Cc1nc(-c2cc(F)c(C3(O)CCN(C4CC4)CC3)cc2F)cc2c1cc(-c1ccc(S(C)(=O)=O)cc1)n2C` [Example 96, 1-cyclopropyl-4-(4-(1,4-dimethyl-2-(4-(methylsulfonyl)phenyl)-1H-pyrrolo[3,2-c]pyridin-6-yl)-2,5-difluorophenyl)piperidin-4-ol] are 2900 nM and 162 nM.
With `Cc1nc(-c2cc(F)c(N3CCN4CCCC4C3)cc2F)cc2c1cc(-c1ccc(S(C)(=O)=O)cc1)n2C` (stereo not drawn) [Example 97, 6-(2,5-difluoro-4-(hexahydropyrrolo[1,2-a]pyrazin-2(1H)-yl)phenyl)-1,4-dimethyl-2-(4-(methylsulfonyl)phenyl)-1H-pyrrolo[3,2-c]pyridine], the IC50 against human TLR7 worked out at 3800 nM; against human TLR9, 202 nM.
In the same order, the values of `Cc1nc(-c2cc(F)c(N3CCN4CCCC4C3)c(F)c2)cc2c1cc(-c1ccc(S(C)(=O)=O)cc1)n2C` (stereo not drawn) [Example 98, 6-(3,5-difluoro-4-(hexahydropyrrolo[1,2-a]pyrazin-2(1H)-yl)phenyl)-1,4-dimethyl-2-(4-(methylsulfonyl)phenyl)-1H-pyrrolo[3,2-c]pyridine] are 700 nM and 212 nM.
